This note sets out measurements from patent publication US12565467B2, “Compounds, compositions, and methods for the treatment of inflammatory, degenerative, and neurodegenerative diseases” (Board of Supervisors of Louisiana State University and …, priority 2015, dated 2026).

“Also recorded” adds a separate entry of the source.

One experiment relates to ischemic stroke (MCAo). The experiment can be described thus: Ischemic stroke model, 2 h MCAo, neurological score during 7 days. Format: in vivo. The settings on record: rat; for activity relative to DHA and NPD1, neurological score (FIG. 12): one hour after 2 h MCAo, 7 days; for in vivo neuroprotective effect (FIG. 12): ICV after 2 hours of MCAo. Here is the method: FIG. 12. […] To test the novel elovanoids the experimental design consisted injecting the compounds into the right cerebral ventricle (5 μg/per rat, ICV), one hour after two hours of an ischemic stroke in rats and following thereafter the neurological behavior (neurological score) during 7 days. The protocol in brief was as follows. The injection was made through a surgically implanted metal canula (Alzet) into the right lateral ventricle. Two days later the right middle cerebral artery (MCA) was occluded for 2 h by means of an intraluminal nylon filament (Belayev et al, Traslational Stroke Research, 2010). Then one hour after the compounds were injected dissolved in sterile cerebrospinal fluid. The occlusion was transient performed as follows. The right common carotid artery was exposed through an incision in the neck and was isolated from surrounding tissues. The distal external carotid artery and pterygopalatine arteries were tied. A 4-cm of 3-0 monofilament nylon suture coated with poly-Lysine was introduced into the internal carotid artery and MCA. The suture position was confirmed by advancing the suture 20-22 mm from the common carotid artery bifurcation. Then, the rats were allowed to awaken from anesthesia and returned to their cages. The degree of stroke injury was assessed by neurological assessment of each rat at 60 min after onset of MCAo. […] After 2 hours of MCA occlusion, the rats were re-anesthetized temperature probes were reinserted and the intraluminal suture was removed. The neck incision was closed with silk sutures, and the animals were allowed free access to food and water. […] The methyl ester ELV2-Me is expected to first be hydrolyzed via the actions of esterases, and it may have a more delayed effect, which may be beneficial for a sustainable long-term treatment.
To test the novel elovanoids the experimental design consisted injecting the compounds into the right cerebral ventricle (5 μg/per rat, ICV), one hour after two hours of an ischemic stroke in rats and following thereafter the neurological behavior (neurological score) during 7 days. The protocol in brief was as follows. The injection was made through a surgically implanted metal canula (Alzet) into the right lateral ventricle. Two days later the right middle cerebral artery (MCA) was occluded for 2 h by means of an intraluminal nylon filament (Belayev et al, Traslational Stroke Research, 2010). Then one hour after the compounds were injected dissolved in sterile cerebrospinal fluid. The occlusion was transient performed as follows. The right common carotid artery was exposed through an incision in the neck and was isolated from surrounding tissues. The distal external carotid artery and pterygopalatine arteries were tied. A 4-cm of 3-0 monofilament nylon suture coated with poly-Lysine was introduced into the internal carotid artery and MCA. The suture position was confirmed by advancing the suture 20-22 mm from the common carotid artery bifurcation. Then, the rats were allowed to awaken from anesthesia and returned to their cages. The degree of stroke injury was assessed by neurological assessment of each rat at 60 min after onset of MCAo. […] After 2 hours of MCA occlusion, the rats were re-anesthetized temperature probes were reinserted and the intraluminal suture was removed. The neck incision was closed with silk sutures, and the animals were allowed free access to food and water. […]

In experiment [1] the test system is neuronal cells in primary cultures. The experiment is described as follows: NMDA-induced toxicity in neuronal cells in primary culture, MTT assay for cell viability. Particulars: MK-801 with ELV2; NMDA receptor blocker used as control. Format: cell-based. From the text: FIG. 11. […] In several neurological and neurodegenerative diseases, such as stroke, epilepsy, status epilepticus, traumatic head injury, etc., as well as ophthalmological diseases, such as glaucoma, an excessive presynaptic release of the excitatory neurotransmitter glutamate takes place. As a consequence, glutamate transporters that function to remove extracellular glutamate from astrocytes and neurons are overwhelmed and the NMDA-type glutamate receptor is over-activated. This receptor is a calcium channel that therefore leads to a flooding of calcium into the postsynaptic cell. The overall phenomena is refer to as excitotoxicity that in turn leads to neuronal damage and cell death. MK801 is a known blocker of this receptor used here as a control.
In several neurological and neurodegenerative diseases, such as stroke, epilepsy, status epilepticus, traumatic head injury, etc., as well as ophthalmological diseases, such as glaucoma, an excessive presynaptic release of the excitatory neurotransmitter glutamate takes place. As a consequence, glutamate transporters that function to remove extracellular glutamate from astrocytes and neurons are overwhelmed and the NMDA-type glutamate receptor is over-activated. This receptor is a calcium channel that therefore leads to a flooding of calcium into the postsynaptic cell. The overall phenomena is refer to as excitotoxicity that in turn leads to neuronal damage and cell death. MK801 is a known blocker of this receptor used here as a control.
(Formazan colour is commonly taken as a measure of viable cells.)

The subject of experiment [2] is human retinal pigment epithelial (RPE) cells deficient in 15-LOX-D1. The experiment is described as follows: Oxidative stress (OS) induced apoptosis / cell death in 15-LOX-1-deficient human RPE cells. The format is cell-based.
Excerpt: (§1) FIG. 4. (A) Cytoprotective effects of NPD1 like compounds on OS induced apoptosis. The results shown in this figure compare the cytoprotective capacities of long chain polyunsaturated fatty acids (VLC-PUFA), elovanoids ELV1 and ELV2, and neuroprotectin D1 (NPD1) in human retinal pigment epithelial (RPE) cells deficient in 15-LOX-D1 by measuring the protection of cell deaths induced by oxidative stress (OS) by these compounds. […] (B) Elovanoid precursors protect human retinal pigment epithelial cells deficient in 15-LOX-1, unlike DHA, from oxidative stress conditions.
(§2) FIG. 5. (A) Effect of PD146176 on VLC-PUFA-inhibited apoptosis induced by OS in ARPE-19 cells. […] It is evident that 32:6 and 34:6 LCAF were able to induce a substantial amount (55 and 48% respectively) of neuroprotection compared to PD 146176 (22%) when the stressed cells were treated with 5 μm of 15-LOX-D1 inhibitor. It can be concluded that since PD146176 is the inhibitor of 15-lipooxygenase enzyme, it might be protecting the stressed RPE cells by accumulating neuroprotective agents inside the cells. (B) Comparison of cytoprotective capacities of NPD1, C32:6 and C34:6 VLC-PUFA on oxidative stress-induced apoptosis in 15-LOX-1 cells. Shown here is the comparison of neuroprotection in a 15-LOX-1-deficient cell line under oxidative stress with 32:6 and 34:6 VLC-PUFA along with NPD1. 32:6 and 34:6 LCAF were able to induce neuroprotection (45% and 40% respectively), as compared to oxidative stress (90%) under this condition. (C) Concentration dependent cytoprotection by C32:6 and C34:6 VLC-PUFA in oxidative-stress induced ARPE-19 cells. A concentration (50-500 nM) kinetic of cytoprotection induced by LCAF 32:6 and 34:6 in RPE cell culture under OS was shown here. […] We decided to use 250 nM concentrations of 32:6 and 34:6 LCAF in subsequent experiments. (D) Selected images of alive and dead cells from this study (control, OS, treatment with C32:6).
as §1, with “Evidence of cytoprotection by 32.6 and 34.6 VLC-PUFA in oxidative-stress induced ARPE-19 cells as detailed in (FIG. 4): (A) Cytoprotective” for “FIG. 4. (A) Cytoprotective”, “capacities of very long chain” for “capacities of long chain”
FIG. 5—(A) Effect of PD146176 on VLC-PUFA inhibited apoptosis induced by OS in ARPE-19 cells. […] It is evident that 32:6 and 34:6 LCAF were able to induce a substantial amount (55 and 48% respectively) of neuroprotection compared to PD 146176 (22%) when the stressed cells were treated with 5 μm of 15-LOX-D1 inhibitor. It can be concluded that since PD146176 is the inhibitor of 15-lipooxygenase enzyme, it might be protecting the stressed RPE cells by accumulating neuroprotective agents inside the cells. (B) Comparison of cytoprotective capacities of NPD1, C32:6 and C34:6 VLC-PUFA on oxidative stress-induced apoptosis in 15-LOX-1 cells. Shown here is the comparison of neuroprotection in a 15-LOX-1-deficient cell line under oxidative stress with 32:6 and 34:6 VLC-PUFA along with NPD1. 32:6 and 34:6 VLC-PUFA were able to induce neuroprotection (45% and 40% respectively), as compared to oxidative stress (90%) under this condition. (C) Concentration dependent cytoprotection by C32:6 and C34:6 VLC-PUFA in oxidative-stress induced ARPE-19 cells. A concentration (50-500 nM) kinetic of cytoprotection induced by VLC-PUFA 32:6 and 34:6 in RPE cell culture under OS was shown here. […] We decided to use 250 nM concentrations of 32:6 and 34:6 VLC-PUFA in subsequent experiments. […]

The next experiment concerns ARPE-19 cells. The experiment is described as follows: Oxidative stress induced apoptosis / cell death in ARPE-19 cells. Format: cell-based, human. The settings on record: stressed ARPE-19 cells treated with 5 μm of 15-LOX-D1 inhibitor PD146176. As for the experimental part: as §2
FIG. 5—(A) Effect of PD146176 on VLC-PUFA inhibited apoptosis induced by OS in ARPE-19 cells. […] It is evident that 32:6 and 34:6 LCAF were able to induce a substantial amount (55 and 48% respectively) of neuroprotection compared to PD 146176 (22%) when the stressed cells were treated with 5 μm of 15-LOX-D1 inhibitor. It can be concluded that since PD146176 is the inhibitor of 15-lipooxygenase enzyme, it might be protecting the stressed RPE cells by accumulating neuroprotective agents inside the cells. (B) Comparison of cytoprotective capacities of NPD1, C32:6 and C34:6 VLC-PUFA on oxidative stress-induced apoptosis in 15-LOX-1 cells. Shown here is the comparison of neuroprotection in a 15-LOX-1-deficient cell line under oxidative stress with 32:6 and 34:6 VLC-PUFA along with NPD1. 32:6 and 34:6 VLC-PUFA were able to induce neuroprotection (45% and 40% respectively), as compared to oxidative stress (90%) under this condition. (C) Concentration dependent cytoprotection by C32:6 and C34:6 VLC-PUFA in oxidative-stress induced ARPE-19 cells. A concentration (50-500 nM) kinetic of cytoprotection induced by VLC-PUFA 32:6 and 34:6 in RPE cell culture under OS was shown here. […] We decided to use 250 nM concentrations of 32:6 and 34:6 VLC-PUFA in subsequent experiments. (D) Selected images of alive and dead cells from this study (control, OS, treatment with C32:6).

`CC/C=C\C[C@H](O)\C=C/C=C/C=C/[C@H](O)C/C=C\C/C=C\CCCCCCCCCCCCCCC(=O)OC` [ELV2-Me, methyl (16Z,19Z,22R,23E,25E,27Z,29S,31Z)-22,29-dihydroxy-tetratriaconta-16,19,23,25,27,31-hexaenoate]: the “activity relative to DHA and NPD1, neurological score (FIG. 12)” value in the experiment with ischemic stroke (MCAo) (5 μg/per rat ICV) was “more active than DHA and NPD1; also recorded: greater in vivo potency than DHA or NPD1”. Further, the “in vivo neuroprotective effect (FIG. 12)” value with ischemic stroke (MCAo) is on record as “potent in vivo neuroprotective effects”.
Regarding `CC/C=C\C[C@H](O)\C=C/C=C/C=C/[C@H](O)C/C=C\C/C=C\CCCCCCCCCCCCCCC(=O)O` [ELV2-Na, sodium (16Z,19Z,22R,23E,25E,27Z,29S,31Z)-22,29-dihydroxytetratriaconta-16,19,23,25,27,31-hexaenoate], in the experiment on ischemic stroke (MCAo) (5 μg/per rat ICV), the “potency of sodium salt versus methyl ester in stroke model (FIG. 12)” value is “greater potency”; the “activity relative to DHA and NPD1, neurological score (FIG. 12)” value was “more active than DHA and NPD1; also recorded: greater in vivo potency than DHA or NPD1”. Further, the “in vivo neuroprotective effect (FIG. 12)” value in the experiment on ischemic stroke (MCAo) is “potent in vivo neuroprotective effects”.
For `C[C@]12N[C@H](Cc3ccccc31)c1ccccc12` [MK-801, reference compound], the “effect of MK-801 on protection, MTT assay for cell viability (FIG. 11B)” value in experiment [1] is listed as “potentiates protection”.
For the molecule `CC/C=C\C[C@H](O)\C=C/C=C/C=C/[C@H](O)C/C=C\C/C=C\CCC(=O)O` [NPD1, 10R,17S-dihydroxy-docosa-4Z,7Z,11E,13E,15Z,19Z-hexaenoic acid, reference compound], the “protection of cell deaths induced by oxidative stress (FIG. 4A)” value in experiment [2] (15-LOX-1-deficient human RPE cells, compared to OS (90%)) is recorded as 60%. In addition, the “protection against cell death under oxidative stress conditions (FIG. 4B)” value in experiment [2] (15-LOX-D1 cells under oxidative stress) is reported as “protect against cell death”.
In the case of `c1ccc2c(c1)SCc1c-2[nH]c2ccccc12` [PD 146176, reference compound], the “neuroprotection (FIG. 5A)” value in the experiment with ARPE-19 cells is on record as 22%.
